The test system of test [1] is IL-4 production in normal human CD4+T cell. Kind of test: IL-4 production inhibitory action evaluation test (anti-CD3/CD28 antibody stimulation, ELISA). Format: cell-based. The settings on record: anti-CD3/CD28, 24 hours, read-out: IL-4 production inhibitory ratio (% of 1 μM). As for the experimental part:
In order to evaluate an action of the present compound as a GR agonist, IL-2 and IL-4 production inhibitory actions in a normal human CD4^+T cell after stimulation by an anti-CD3/CD28 antibody were investigated. For the measurement of the IL-2 and IL-4 production amounts, the ELISA method (manufactured by R&D Systems, Cat No. D2050, HS400) was used, and a procedure was carried out according to the protocol attached thereto. Hereinafter, the specific method will be described.
Dynabeads (Registered Trademark) Human T-Activator CD3/CD28 (4×10^7 beads/mL) (Dynabeads) was used, and prepared according to the protocol attached thereto.
After the test compound was dissolved in dimethylsulfoxide, the solution was diluted with an RPMI medium to prepare 400 μM of a test compound solution. The solution was diluted with a 4% dimethylsulfoxide-containing RPMI medium to prepare 40 μM of a test compound solution.
Used cells: normal peripheral blood human CD4^+T cell (human CD4^+T cell) (Lonza)
• 1) Frozen human CD4^+T cells were thawed in a warm water bath at 37° C., and added to an RPMI medium (RPMI 1640 containing 10% FBS, 100 U/mL of Penicillin, and […] of Streptomycin). • 2) The above suspension was recovered and centrifuged at 900 rpm for 10 minutes to give a cell sediment. • 3) The cell sediment was suspended in an RPMI medium and the operation of 2) was carried out. • 4) The cell sediment was adjusted to 4×10^5 cells/mL with an RPMI medium. • 5) The above suspension was cultured in a CO2 incubator (temperature: 37° C., CO2 concentration: 5%) for 1 hour or longer. (Test Method and Measurement Method) • 1) The cultured human CD4^+T cells were recovered and the cells were seeded in 96-well flat bottom culture plates at each 8.0×10^4 cells/0.2 mL/well. • 2) The test compound solution was added with each 5 μL/well. • 3) The prepared Dynabeads were added with each 2 μL/well. • 4) The sample in which 4% dimethylsulfoxide-containing RPMI medium was added with each 5 μL/well in place of each test compound solution, and the RPMI medium was added with each 2 μL/well in place of the Dynabeads was made a negative control. • 5) The sample in which 4% dimethylsulfoxide-containing RPMI medium was added with each 5 μL/well in place of each test compound solution was made a positive control. • 6) After completion of 24 hours cultivation, the supernatant was recovered and the amounts of IL-2 and IL-4 released in the supernatant was measured by using an ELISA Kit. • 7) The IL-2 and IL-4 production inhibitory ratios were calculated according to the following calculation formula. (Calculation of IL-2 and IL-4 Production Inhibitory Ratios)
The IL-2 and IL-4 production inhibitory ratios (%) were calculated by the following formula, respectively. IL-2 or IL-4 production inhibitory ratio (%)=100×{1−(IL-2 or IL-4 production amounts of each test compound solution−average value of IL-2 or IL-4 production amount of negative control group)/(average value of IL-2 or IL-4 production amount of positive control group−average value of IL-2 or IL-4 production amount of negative control group)}(%) (Test Result and Consideration)
On the technique in general: In an ELISA, binding on a coated surface is turned into a signal by an enzyme label.

The subject of test [2] is MCP-1 production in human monocyte cell (THP-1). Kind of test: MCP-1 production inhibitory action evaluation test (LPS stimulation, ELISA). Conditions: THP-1, LPS, 18 hours. It counts as cell-based. The method, then: In order to evaluate an action of the present compound as a GR agonist, an MCP-1 production inhibitory action in human monocyte cell after stimulation by LPS was investigated. For the measurement of the MCP-1 production amount in the sample, the ELISA method (manufactured by R&D Systems, Cat No. DCP00) was used, and a procedure was carried out according to the protocol attached thereto. Hereinafter, the specific method will be described.
LPS solution: After LPS was dissolved in PBS(−), the solution was diluted with 10% FBS-containing RPMI 1640 to prepare an LPS solution with a 40 μg/mL concentration.
After the test compound was dissolved in dimethylsulfoxide, the solution was diluted with an RPMI medium to prepare 400 μM of a test compound solution. The solution was diluted with a 4% dimethylsulfoxide-containing RPMI 1640 medium to prepare 40 μM of a test compound solution.
Used cells: human monocyte cell (THP-1) (ATCC)
• 1) Subcultured THP-1 was recovered and centrifuged at 1,100 rpm for 5 minutes to give a cell sediment. • 2) An RPMI medium (RPMI 1640 containing 10% FBS, 100 U/mL of penicillin, 100 μg/mL of streptomycin, 55 μM of 2-Mercaptoethanol, 10 ng/mL of human EGF, and 40 μg/mL of gentamicin) was added. • 3) The above suspension was seeded in a culture flask and cultured in a CO2 incubator (temperature: 37° C., CO2 concentration: 5%). The cells continued to subculture according to this method were used for the test. (Test Method and Measurement Method) • 1) The subcultured THP-1 was recovered and the cells were each seeded at 1.9×10^5 cells/0.19 mL/well in a 96-well round bottom culture plate. • 2) The test compound solution was added with each 5 μL/well and cultured for 2 hours. • 3) LPS solution was added with each 5 μL/well. • 4) The sample to which 4% dimethylsulfoxide-containing RPMI medium was added with each 5 μL/well in place of each test compound solution, and 10% FBS-RPMI 1640 was added with each 5 μL/well in place of the LPS solution was made a negative control. • 5) The sample to 4% dimethylsulfoxide-containing RPMI medium was added with each 5 μL/well in place of each test compound solution was made a positive control. • 6) After completion of 18 hours cultivation, the supernatant was recovered and the amount of MCP-1 released in the supernatant was measured by using an ELISA Kit. • 7) The MCP-1 production inhibitory ratio was calculated according to the following calculation formula. (Calculation of MCP-1 Production Inhibitory Ratio)
MCP-1 production inhibitory ratio (%) was calculated by the following formula. […]

Turning to `COc1ccc(-c2ccc3c(c2COc2cc(F)ccc2C)N(C)C(=O)C(C)(C)N3)c(OC)c1` [Control compound E, 7-(2,4-dimethoxyphenyl)-8-(5-fluoro-2-methyl-phenoxymethyl)-1,3,3-trimethyl-3,4-dihydro-1H-quinoxalin-2-one, reference compound], the inhibition at 1 µM in test [1] worked out at 32%. The “MCP-1 production inhibitory ratio (% of 1 μM)” value in test [2] worked out at 40%. `COc1ccc(O)cc1-c1ccc2c(c1COc1cc(F)ccc1C)N(C)C(=O)C(C)(C)N2` [Control compound C, 8-(5-fluoro-2-methylphenoxymethyl)-7-(5-hydroxy-2-methoxyphenyl)-1,3,3-trimethyl-3,4-dihydro-1H-quinoxalin-2-one]: the inhibition at 1 µM in test [1] is 56%. Besides, in test [2], the “MCP-1 production inhibitory ratio (% of 1 μM)” value was found to be 65%. For `COc1cc(OC[C@@H](O)CCO)ccc1-c1ccc2c(c1COc1cc(F)ccc1C)N(C)C(=O)C(C)(C)N2` [Compound 2-1, (S)-7-[4-(2,4-dihydroxybutyl)oxy-2-methoxyphenyl]-8-(5-fluoro-2-methyl-phenoxymethyl)-1,3,3-trimethyl-3,4-dihydro-1H-quinoxalin-2-one], in test [1], the inhibition at 1 µM came to 83%. For the compound `COc1cc(OC[C@H](C)OC(=O)CN(C)C)ccc1-c1ccc2c(c1COc1cc(F)ccc1C)N(C)C(=O)C(C)(C)N2` [Compound 11-1, (S)-7-[4-[2-(N,N-dimethylaminoacetoxy)propyl]oxy-2-methoxyphenyl]-8-(5-fluoro-2-methylphenoxymethyl)-1,3,3-trimethyl-3,4-dihydro-1H-quinoxalin-2-one], the inhibition at 1 µM in test [1] was 87%. Moreover, in test [2], the “MCP-1 production inhibitory ratio (% of 1 μM)” value stood at 88%. Consider `COc1ccc(CO)cc1-c1ccc2c(c1COc1cc(F)ccc1C)N(C)C(=O)C(C)(C)N2` [Control compound B, 8-(5-fluoro-2-methylphenoxymethyl)-7-(5-hydroxymethyl-2-methoxyphenyl)-1,3,3-trimethyl-3,4-dihydro-1H-quinoxalin-2-one, reference compound], for which the inhibition at 1 µM in test [1] was determined as 51%. As to `COCOc1ccc(-c2ccc3c(c2COc2cc(F)ccc2C)N(C)C(=O)C(C)(C)N3)c(OC)c1` [Control compound F, 8-(5-fluoro-2-methylphenoxymethyl)-7-(2-methoxy-4-methoxymethoxyphenyl)-1,3,3-trimethyl-3,4-dihydro-1H-quinoxalin-2-one, reference compound], the inhibition at 1 µM in test [1] stood at 29%. Also, the “MCP-1 production inhibitory ratio (% of 1 μM)” value in test [2] is 27%. Turning to `COc1cc(OC[C@H](C)O)ccc1-c1ccc2c(c1COc1cc(F)ccc1C)N(C)C(=O)C(C)(C)N2` [Compound 1-1, (S)-8-(5-fluoro-2-methylphenoxymethyl)-7-[4-(2-hydroxypropyl)oxy-2-methoxy-phenyl]-1,3,3-trimethyl-3,4-dihydro-1H-quinoxalin-2-one], in test [1], the inhibition at 1 µM amounted to 91%. Turning to `CCCC(=O)Oc1ccc(-c2ccc3c(c2COc2cc(F)ccc2C)N(C)C(=O)C(C)(C)N3)c(OC)c1` [Control compound D, 7-(4-butyryloxy-2-methoxyphenyl)-8-(5-fluoro-2-methylphenoxymethyl)-1,3,3-trimethyl-3,4-dihydro-1H-quinoxalin-2-one, reference compound], the inhibition at 1 µM in test [1] came to 46%.

These data come from patent publication US10189796B2, “[4-(1,3,3-trimethyl-2-oxo-3,4-dihydro-1H-quinoxalin-7-yl)phenoxy]ethyloxy compound or salt thereof” (SANTEN PHARMACEUTICAL CO., LTD., priority 2015, dated 2019).
